Reference: patent US20240182475A1 (Université de Lausanne, priority 2021, published 2024)

Columns and labels:
[1] = system: primary human chondrocytes; test: Primary human chondrocyte calcification (Alizarin red); format: cell-based; settings: secondary CPP 24 h, 50 uM
Procedure: (a) WT and Cse-deficient chondrocytes were incubated with a CSE activator (SU004, 50 μM) previously identified by high-through put screen, or with the equivalent volume of DMSO (0.1%) for 24 hours in calcification medium. STS 25 mM was used as a positive control for calcification inhibition. Calcium-containing crystals were stained with Alizarin red and quantified. (b) Cytotoxicity was assessed by LDH measurement and expressed as % over 100% cytotoxicity. (c) IL-6 secretion was measured by ELISA in supernatant of WT chondrocytes incubated with SU004 50 μM or STS 25 mM for 24 hours in calcification medium. (d) Primary human chondrocytes from 3 OA patients (P1, P2, P3) were incubated with SU004 50 μM, or with the equivalent volume of DMSO (0.1%) for 24 hours in calcification medium. Calcium-containing crystals were stained with Alizarin red and quantified. (e) Cytotoxicity was assessed by LDH measurement and expressed as % over 100% cytotoxicity. (f) IL-6 secretion was measured by ELISA in supernatant of human chondrocytes incubated for 24 hours with SU004 50 μM in calcification medium. *p<0.05, ** p<0.01, ****p<0.0001.
1. Alizarin red staining of primary human chondrocytes stimulated with secondary CPP for 24 h in DMEM+10% FBS and treated or not with 50 uM of compounds.
Chondrocytes were isolated from cartilage pieces incubated overnight in the digestion enzyme Liberase™ (Roche). […]

MOVAS cells = test: MOVAS cell calcification assay (Alizarin red); format: cell-based, mouse; settings: for Mineralization (Alizarin red): 50 uM
In short: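 MOVAS mouse vascular smooth muscle cells were calcified with CPP (equivalent to 50 μg Ca/mL) for 24 h at 37 °C in DMEM/10% FBS with compounds in 0.1% DMSO. Deposits were stained with Alizarin Red (pH 4.2), dissolved in cetylpyridinium chloride and read at 570 and 630 nm. No-CPP background was subtracted.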

recombinant human CSE = recombinant human CSE (Homo sapiens, UniProt P32929); test: CSE activity (AzMC probe assay), H2S production by recombinant human CSE; format: biochemical; settings: for CSE production of H2S (AzMC fluorescence, kinetic 2 h): 50 uM, 2 μg rCSE, 10 mM L-cysteine, 5 uM PLP, Tris-HCl pH 8, vs vehicle
recombinant human CSE, sequence (P32929 whole entry): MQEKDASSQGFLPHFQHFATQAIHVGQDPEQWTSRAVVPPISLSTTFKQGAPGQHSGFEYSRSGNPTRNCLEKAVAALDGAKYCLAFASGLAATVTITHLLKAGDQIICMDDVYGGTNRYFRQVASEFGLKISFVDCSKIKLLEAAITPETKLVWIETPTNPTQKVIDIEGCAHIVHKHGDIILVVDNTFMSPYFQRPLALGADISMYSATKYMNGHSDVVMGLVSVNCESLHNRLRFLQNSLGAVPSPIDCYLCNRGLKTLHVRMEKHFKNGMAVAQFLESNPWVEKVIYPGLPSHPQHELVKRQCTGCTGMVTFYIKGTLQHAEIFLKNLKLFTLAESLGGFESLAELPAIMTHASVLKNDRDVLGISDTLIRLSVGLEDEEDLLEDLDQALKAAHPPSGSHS
Procedure: The activity of recombinant human CSE (rCSE) was tested in the presence of C5, compound 8 (50 uM), Z20 compound 13 (50 uM) or vehicle (DMSO). Briefly, compounds were added in reaction buffer (50 mM Tris-HCl, pH 8) containing 2 μg of rCSE, 10 mM CSE substrate L-cysteine, 5 uM pyridoxal 5′-phosphate (PLP). After addition of 10 μM of the H2S sensitive fluorescent probe 7-azido-4-methylcoumarin (AzMC) in a total volume of 100 μl, fluorescence was immediately measured in kinetic mode for 2 h at 37° C. with SpectraMax M5 reader, with excitation and emission wavelengths of 365 nm and 450 nm, respectively. Statistical analysis was determined using simple linear regression with p<0.0001 for C5 vs. vehicle and p<0.0002 for Z20 vs. vehicle.
Recombinant human CSE (1 μg/well) was incubated with various concentrations of compounds (all in final 0.1% DMSO), or with 0.1% DMSO as a control, in 10 mM sodium phosphate buffer pH 8.2. Next, 10 mM L-cysteine and 1 mM PLP and 10 μM of the probe AzMC were then added to reach 100 μL total volume. Fluorescence was measured for 3 h at 37° C. with excitation and emission wavelengths of 365 nm and 450 nm, respectively, in a 96-well half area black plate with transparent bottom.
Dose-response curve of each compound was performed, using triplicate wells for each tested doses. The background (10 mM sodium phosphate buffer with L-cysteine, PLP and AzMC) was subtracted from all values. Each mean value was converted to percent activity (0% defined as the smallest mean in each data set, 100% defined as the highest mean in each data set). The data were normalized using the four parameter logistic model (4PL) equation to calculate EC50 using GraphPad Prism.

Cn1ncc2c(Nc3cnn(CC4CCCO4)c3)ncnc21 (stereo not drawn) [Compound 8, N-{1-methyl-1H-pyrazolo[3,4-d]pyrimidin-4-yl}-1-[(oxolan-2-yl)methyl]-1H-pyrazol-4-amine]
Mineralization (Alizarin red) [1]: inhibit primary human chondrocyte mineralization | inhibition at 2 µM (MOVAS cells; Mus musculus, MOVAS, at 2 uM, read-out: Calcification assay Max calcification inhibition (%) at the indicated dose of compound): 38% | Mineralization (Alizarin red) (MOVAS cells; sCPP 24 h): inhibit murine vascular smooth muscle cells (MOVAS cells) mineralization | CSE production of H2S (AzMC fluorescence, kinetic 2 h) (recombinant human CSE): augments CSE production of H2S | EC50 (recombinant human CSE; EC50 calculated by the four-parameter logistic model): 68.6 nM

CCn1cnc2c(Nc3cnn(CC4CCCO4)c3)ncnc21 (stereo not drawn) [Compound 13]
Mineralization (Alizarin red) [1]: inhibit primary human chondrocyte mineralization | Mineralization (Alizarin red) (MOVAS cells; sCPP 24 h): inhibits MOVAS cells mineralization | Mineralization (Alizarin red absorbance 570-630 nm) (MOVAS cells; sCPP 24 h, different concentrations): Dose-dependent effect | CSE production of H2S (AzMC fluorescence, kinetic 2 h) (recombinant human CSE): augments CSE production of H2S
